Data from PubChem BioAssay AID1259407 (Chemical Carcinogenesis Research Information System (CCRIS), 2018).
Activity calls are given as the source filed them. How the calls were made is not given here.

System: CCRIS mutagenicity, Ames/micronucleus/aberration tests
Experiment: CCRIS mutagenicity studies
[1] = Test System: AMES SALMONELLA TYPHIMURIUM, Strain/Indicator: TA98, Metabolic Activation: NONE, Method: STANDARD PLATE
[2] = Test System: AMES SALMONELLA TYPHIMURIUM, Strain/Indicator: TA98, Metabolic Activation: RAT, LIVER, S-9, AROCLOR 1254, Method: STANDARD PLATE
[3] = Test System: AMES SALMONELLA TYPHIMURIUM, Strain/Indicator: TA100, Metabolic Activation: NONE, Method: STANDARD PLATE
[4] = Test System: AMES SALMONELLA TYPHIMURIUM, Strain/Indicator: TA100, Metabolic Activation: RAT, LIVER, S-9, AROCLOR 1254, Method: STANDARD PLATE

Measured: mutagenic call

Oc1cc(Cl)c(Cl)cc1Cl
inactive: Test System: AMES SALMONELLA TYPHIMURIUM, Strain/Indicator: TA98, Metabolic Activation: NONE inactive; negative | Test System: AMES SALMONELLA TYPHIMURIUM, Strain/Indicator: TA98, Metabolic Activation: RAT, LIVER, S-9, AROCLOR 1254 inactive; negative | Test System: AMES SALMONELLA TYPHIMURIUM, Strain/Indicator: TA100, Metabolic Activation: NONE inactive; negative | Test System: AMES SALMONELLA TYPHIMURIUM, Strain/Indicator: TA100, Metabolic Activation: RAT, LIVER, S-9, AROCLOR 1254 inactive; negative | [4] inactive; negative | Test System: AMES SALMONELLA TYPHIMURIUM, Strain/Indicator: TA102, Metabolic Activation: NONE inactive; negative | Test System: AMES SALMONELLA TYPHIMURIUM, Strain/Indicator: TA102, Metabolic Activation: RAT, LIVER, S-9, AROCLOR 1254 inactive; negative | Test System: AMES SALMONELLA TYPHIMURIUM, Strain/Indicator: TA104, Metabolic Activation: NONE inactive; negative | Test System: AMES SALMONELLA TYPHIMURIUM, Strain/Indicator: TA104, Metabolic Activation: NONE, Method: STANDARD PLATE inactive; negative | Test System: AMES SALMONELLA TYPHIMURIUM, Strain/Indicator: TA104, Metabolic Activation: RAT, LIVER, S-9, AROCLOR 1254 inactive; negative | Test System: AMES SALMONELLA TYPHIMURIUM, Strain/Indicator: TA104, Metabolic Activation: RAT, LIVER, S-9, AROCLOR 1254, Method: STANDARD PLATE inactive; negative | Test System: CHINESE HAMSTER V-79, Strain/Indicator: V-79/6-THIOGUANINE, Metabolic Activation: NONE, Method: STANDARD PLATE inactive; negative
active: Test System: AMES SALMONELLA TYPHIMURIUM, Strain/Indicator: TA97, Metabolic Activation: NONE, Method: STANDARD PLATE active; positive | Test System: AMES SALMONELLA TYPHIMURIUM, Strain/Indicator: TA97, Metabolic Activation: RAT, LIVER, S-9, AROCLOR 1254, Method: STANDARD PLATE active; positive | [1] active; positive | [2] active; positive | [3] active; positive

CC(C)=C/C(C)=N/Nc1nncc2ccccc12
inactive: Test System: UDS RAT HEPATOCYTES, Strain/Indicator: THY INCORP, Metabolic Activation: NONE, Method: AUTORADIOGRAPHY inactive; negative
active: [3] active; positive | Test System: AMES SALMONELLA TYPHIMURIUM, Strain/Indicator: TA100, Metabolic Activation: RAT, LIVER, S-9, PHENOBARBITAL, Method: STANDARD PLATE active; positive

Cc1cc(O)c2c(c1O)C(=O)c1cc(O)cc(O)c1C2=O
inactive: Test System: AMES SALMONELLA TYPHIMURIUM, Strain/Indicator: TA1537, Metabolic Activation: NONE, Method: STANDARD PLATE inactive; negative | Test System: AMES SALMONELLA TYPHIMURIUM, Strain/Indicator: TA1537, Metabolic Activation: RAT, LIVER, S-9, PCB, Method: STANDARD PLATE inactive; negative

CCOP(=S)(OCC)SCn1c(=O)oc2cc(Cl)ccc21
inactive: Test System: AMES SALMONELLA TYPHIMURIUM, Strain/Indicator: TA97A, Metabolic Activation: NONE, Method: STANDARD PLATE inactive; negative | Test System: AMES SALMONELLA TYPHIMURIUM, Strain/Indicator: TA97A, Metabolic Activation: RAT, CECAL CELL FREE EXTRACT, Method: STANDARD PLATE inactive; negative | Test System: AMES SALMONELLA TYPHIMURIUM, Strain/Indicator: TA97A, Metabolic Activation: RAT, LIVER, S-9, AROCLOR 1254, Method: STANDARD PLATE inactive; negative | [1] inactive; negative | Test System: AMES SALMONELLA TYPHIMURIUM, Strain/Indicator: TA98, Metabolic Activation: RAT, CECAL CELL FREE EXTRACT, Method: STANDARD PLATE inactive; negative | [2] inactive; negative | [3] inactive; negative | Test System: AMES SALMONELLA TYPHIMURIUM, Strain/Indicator: TA100, Metabolic Activation: RAT, CECAL CELL FREE EXTRACT, Method: STANDARD PLATE inactive; negative | [4] inactive; negative

N#CN=C(N)N
active: Test System: AMES SALMONELLA TYPHIMURIUM, Strain/Indicator: TA98, Metabolic Activation: MAIZE SEEDLING, S-14, Method: PREINCUBATION active; positive
inactive: Test System: AMES SALMONELLA TYPHIMURIUM, Strain/Indicator: TA98, Metabolic Activation: MOUSE, LIVER, S-9, Method: PREINCUBATION inactive; negative | Test System: AMES SALMONELLA TYPHIMURIUM, Strain/Indicator: TA98, Metabolic Activation: NONE, Method: PREINCUBATION inactive; negative | Test System: AMES SALMONELLA TYPHIMURIUM, Strain/Indicator: TA98, Metabolic Activation: RAT LIVER S-9, PHENOBARBITAL AND BETA-NAPHTHOFLAVONE, Method: PREINCUBATION inactive; negative | Test System: AMES SALMONELLA TYPHIMURIUM, Strain/Indicator: TA100, Metabolic Activation: MAIZE SEEDLING, S-14, Method: PREINCUBATION inactive; negative | Test System: AMES SALMONELLA TYPHIMURIUM, Strain/Indicator: TA100, Metabolic Activation: MOUSE, LIVER, S-9, Method: PREINCUBATION inactive; negative | Test System: AMES SALMONELLA TYPHIMURIUM, Strain/Indicator: TA100, Metabolic Activation: NONE, Method: PREINCUBATION inactive; negative | Test System: AMES SALMONELLA TYPHIMURIUM, Strain/Indicator: TA100, Metabolic Activation: RAT LIVER S-9, PHENOBARBITAL AND BETA-NAPHTHOFLAVONE, Method: PREINCUBATION inactive; negative | Test System: AMES SALMONELLA TYPHIMURIUM, Strain/Indicator: TA102, Metabolic Activation: NONE, Method: PREINCUBATION inactive; negative | Test System: AMES SALMONELLA TYPHIMURIUM, Strain/Indicator: TA102, Metabolic Activation: RAT LIVER S-9, PHENOBARBITAL AND BETA-NAPHTHOFLAVONE, Method: PREINCUBATION inactive; negative | Test System: AMES SALMONELLA TYPHIMURIUM, Strain/Indicator: TA104, Metabolic Activation: NONE, Method: PREINCUBATION inactive; negative | Test System: AMES SALMONELLA TYPHIMURIUM, Strain/Indicator: TA104, Metabolic Activation: RAT LIVER S-9, PHENOBARBITAL AND BETA-NAPHTHOFLAVONE, Method: PREINCUBATION inactive; negative | Test System: AMES SALMONELLA TYPHIMURIUM, Strain/Indicator: TA1535, Metabolic Activation: NONE, Method: PREINCUBATION inactive; negative | Test System: AMES SALMONELLA TYPHIMURIUM, Strain/Indicator: TA1535, Metabolic Activation: RAT LIVER S-9, PHENOBARBITAL AND BETA-NAPHTHOFLAVONE, Method: PREINCUBATION inactive; negative | Test System: AMES SALMONELLA TYPHIMURIUM, Strain/Indicator: TA1537, Metabolic Activation: NONE, Method: PREINCUBATION inactive; negative | Test System: AMES SALMONELLA TYPHIMURIUM, Strain/Indicator: TA1537, Metabolic Activation: RAT LIVER S-9, PHENOBARBITAL AND BETA-NAPHTHOFLAVONE, Method: PREINCUBATION inactive; negative | Test System: AMES SALMONELLA TYPHIMURIUM, Strain/Indicator: TA1538, Metabolic Activation: NONE, Method: PREINCUBATION inactive; negative | Test System: E.COLI, Strain/Indicator: WP2UVRA/PKM101, Metabolic Activation: NONE, Method: PREINCUBATION inactive; negative | Test System: E.COLI, Strain/Indicator: WP2UVRA/PKM101, Metabolic Activation: RAT LIVER S-9, PHENOBARBITAL AND BETA-NAPHTHOFLAVONE, Method: PREINCUBATION inactive; negative | Test System: E.COLI, Strain/Indicator: WP2UVRA, Metabolic Activation: NONE, Method: PREINCUBATION inactive; negative | Test System: E.COLI, Strain/Indicator: WP2UVRA, Metabolic Activation: RAT LIVER S-9, PHENOBARBITAL AND BETA-NAPHTHOFLAVONE, Method: PREINCUBATION inactive; negative
